Measured values: patent publication US9233185B2, “Absorbent article” (UNICHARM CORPORATION, priority 2012, dated 2016)

How the values were obtained:
[1] = Rewetting rate of sanitary napkin with top sheet coated with blood modifying agent; details: horse EDTA blood 3.0 g twice at 37±1° C.; agent coated on top sheet at about 5 g/m^2
Description: A commercially available sanitary napkin was prepared. The sanitary napkin was formed from a top sheet, formed of a hydrophilic agent-treated air-through nonwoven fabric (composite fiber composed of polyester and polyethylene terephthalate, basis weight: 35 g/m^2), a second sheet, formed of an air-through nonwoven fabric (composite fiber composed of polyester and polyethylene terephthalate, basis weight: 30 g/m^2), an absorbent body comprising pulp (basis weight: 150-450 g/m^2, increased at the center section), an acrylic super-absorbent polymer (basis weight: 15 g/m^2) and tissue as a core wrap, a water-repellent agent-treated side sheet, and a back sheet composed of a polyethylene film.
(§1) The skin contact surface of the top sheet of the sanitary napkin was coated with the aforementioned blood modifying agent. Each blood modifying agent was used directly, when the blood modifying agent was liquid at room temperature, or when the blood modifying agent was solid at room temperature it was heated to its melting point +20° C., and a control seam HMA gun was used for atomization of the blood modifying agent and coating onto the entire skin contact surface of the top sheet to a basis weight of about 5 g/m^2.
(§2) An acrylic board with an opened hole (200 mm×100 mm, 125 g, with a 40 mm×10 mm hole opened at the center) was placed on a top sheet comprising each blood modifying agent, and 3.0 g of horse EDTA blood at 37±1° C. (obtained by adding ethylenediaminetetraacetic acid (hereunder, “EDTA”) to horse blood to prevent coagulation) was dropped through the hole using a pipette (once), and after 1 minute, 3.0 g of horse EDTA blood at 37±1° C. was again added dropwise through the acrylic board hole with a pipette (twice).
After the second dropping of blood, the acrylic board was immediately removed and 10 sheets of filter paper (Advantec Toyo Kaisha, Ltd, Qualitative Filter Paper No. 2, 50 mm×35 mm) were placed on the location where the blood had been dropped, and then a weight was placed thereover to a pressure of 30 g/cm^2. After 1 minute, the filter paper was removed, and the “rewetting rate” was calculated by the following formula. Rewetting rate(%)=100×(filter paper mass after test−initial filter paper mass)/6

[2] = Absorbent body migration rate after second dropping of blood; details: time after second dropping of horse EDTA blood; agent about 5 g/m^2
Description: as §1, §2
In addition to the rewetting rate evaluation, the “absorbent body migration rate” was also measured as the time until migration of blood from the top sheet to the absorbent body after the second dropping of blood. The absorbent body migration rate is the time from introducing the blood onto the top sheet, until the redness of the blood […] on the surface and in the interior of the top sheet.

[3] = Visual evaluation of whiteness of skin contact surface of top sheet; design: species or system horse; key: VG (Very Good): Virtually no redness of blood remaining, and no clear delineation between areas with and without blood.; G (Good): Slight redness of blood remaining, but difficult to delineate between areas with and without blood.; F (Fair): Slight redness of blood remaining, areas with blood discernible.; P (Poor): Redness of blood completely remaining; details: after absorbent body migration rate test
Source text: The whiteness of the skin contact surface of the top sheet after the absorbent body migration rate test was visually evaluated on the following scale.
VG (Very Good): Virtually no redness of blood remaining, and no clear delineation between areas with and without blood.
G (Good): Slight redness of blood remaining, but difficult to delineate between areas with and without blood.
F (Fair): Slight redness of blood remaining, areas with blood discernible.
P (Poor): Redness of blood completely remaining.

[4] = Source text: The term “solubility” used herein in regard to water solubility includes cases where the sample completely dissolves in deionized water to form a homogeneous mixture, and cases where the sample is completely emulsified. Here, “completely” means that no mass of the sample remains in the deionized water.
[5] = Surface tension of blood containing blood modifying agent, pendant drop method; details: sheep defibrinated blood; amount 0.10 mass %; 35 ° C.
Description: The surface tension of blood containing a blood modifying agent was measured by the pendant drop method, using a Drop Master500 contact angle meter by Kyowa Interface Science Co., Ltd. The surface tension was measured after adding a prescribed amount of blood modifying agent to sheep defibrinated blood, and thoroughly shaking. The measurement was accomplished automatically with a device, and the surface tension γ was determined by the following formula (see FIG. 10). γ=g×ρ×(de)^2×1/H The density ρ was measured at the temperatures listed in Table 7, according to JIS K 2249-1995, “Density test methods and density/mass/volume conversion tables”, “5. Vibrating density test method”. The measurement was accomplished using a DA-505 by Kyoto Electronics Co., Ltd.

Compound | Rewetting rate [1] [%] | Absorbent body migration rate [2] [s] | Top sheet whiteness [3] | Water solubility [4] | Surface tension [5] [mN/m]
CCCCOC(=O)CC(CC(=O)OCCCC)(OC(C)=O)C(=O)OCCCC [Tributyl O-acetylcitrate] | 6.2 | 8 | VG | <0.05 g | 
CCCCC(CC)C(=O)OCC(COC(=O)C(CC)CCCC)(COC(=O)C(CC)CCCC)COC(=O)C(CC)CCCC (centres unmarked) [H-408BRS, Pentaerythritol tetra(2-ethylhexanoate)] |  |  | VG |  | 
CCCCCCCCCCCC(=O)OCC(O)CO (centres unmarked) [90-L2 Lauric acid monoglyceride, lauric acid monoglyceride] | 6.2 |  | P |  | 
CCCCC(CC)C(=O)OCC(COC(=O)C(CC)CCCC)OC(=O)C(CC)CCCC (centres unmarked) [PANACET 800B] | 2.0 | 3 | VG | <0.05 g | 
CCCCCCCCOC(=O)CCCCC(=O)OCCCCCCCC [Dioctyl adipate] | 1.7 | 6 | VG |  | 
Isopropyl citrate | 12.2 | 5 | G |  | 
Caprylic acid diglyceride [Caprylic diglyceride] | 4.2 | 9 | G |  | 
CCCCCCCCCCCCOC(=O)CCCCCCCCCCC [ELECTOL WE20, Ester of dodecanoic acid (C12) and dodecyl alcohol (C12)] | 1.8 |  | VG |  | 58.8
CC(C)CCCCCCCCCCCCCCCOC(=O)CC(O)C(=O)OCCCCCCCCCCCCCCCC(C)C (centres unmarked) [Diisostearyl malate] | 5.5 | 8 | F | 20< g | 
CCCCCCCC(=O)OCC(COC(=O)CCCCCCC)OC(=O)CCCCCCC [PANACET 800] | 0.3 | 3 | VG | <0.05 g | 
CCCCC(CC)C(=O)OCC(C)(C)COC(=O)C(CC)CCCC (centres unmarked) [H-208BRS, Neopentyl glycol di(2-ethylhexanoate)] | 2.0 | 5 | VG | <0.05 g | 
CCCCCCCCCCCCCC(=O)OCCCCCCCCCCCC [ELECTOL WE40, Ester of tetradecanoic acid (C14) and dodecyl alcohol (C12)] | 1.8 | 4 | VG |  | 
